Reference: PubChem BioAssay AID1963856 (Molecular Pharmacology Branch, DTP, NCI, 2024)

System: LG0567-F671-PDC KRAS tumor spheroid viability
Assay: Anticancer human tumor LG0567-F671-PDC patient-derived lung adenocarcinoma cell line growth inhibition [KRAS2]
Details: spheroids with HUVEC and MSC; for IC50: curve of first compound; for viability, T/C: stronger effect = lower value
How it was run: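 KRAS-mutant tumor cells were grown as spheroids with HUVEC endothelial cells and human MSCs as stroma. Targeted agents were tested alone and with KRAS pathway inhibitors. Doses started at or near clinical Cmax, or 10 microM, descending half-log.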

[1] = second compound 0.1 µM, first compound 0.0316 µM
[2] = second compound 0.1 µM, first compound 0.1 µM
[3] = second compound 0.1 µM, first compound 0.316 µM
[4] = second compound 0.1 µM, first compound 1 µM
[5] = second compound 0.1 µM, first compound 3.16 µM
[6] = second compound 0.1 µM, first compound 10 µM
[7] = second compound 0.316 µM, first compound 0.0316 µM
[8] = second compound 0.316 µM, first compound 0.1 µM
[9] = second compound 0.316 µM, first compound 0.316 µM
[10] = second compound 0.316 µM, first compound 1 µM
[11] = second compound 0.316 µM, first compound 3.16 µM
[12] = second compound 0.316 µM, first compound 10 µM
[13] = second compound 1 µM, first compound 0.0316 µM
[14] = second compound 1 µM, first compound 0.1 µM
[15] = second compound 1 µM, first compound 0.316 µM
[16] = second compound 1 µM, first compound 1 µM
[17] = second compound 1 µM, first compound 3.16 µM
[18] = second compound 1 µM, first compound 10 µM
[19] = second compound 3.16 µM, first compound 0.0316 µM
[20] = second compound 3.16 µM, first compound 0.1 µM
[21] = second compound 3.16 µM, first compound 0.316 µM
[22] = second compound 3.16 µM, first compound 1 µM
[23] = second compound 3.16 µM, first compound 3.16 µM
[24] = second compound 3.16 µM, first compound 10 µM
[25] = second compound 10 µM, first compound 0.0316 µM
[26] = second compound 10 µM, first compound 0.1 µM
[27] = second compound 10 µM, first compound 0.316 µM
[28] = second compound 10 µM, first compound 1 µM
[29] = second compound 10 µM, first compound 3.16 µM
[30] = second compound 10 µM, first compound 10 µM
[31] = second compound 0.1 µM, first compound 0.01 µM
[32] = second compound 0.316 µM, first compound 0.01 µM
[33] = second compound 1 µM, first compound 0.01 µM
[34] = second compound 3.16 µM, first compound 0.01 µM
[35] = second compound 10 µM, first compound 0.01 µM
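Further: drug exposure lasted seven days after spheroids formed for three days.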
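Wherever viability, T/C is given: 100% = DMSO vehicle control viability.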

Compound	IC50 (second compound 0.1 µM)	IC50 (second compound 0.316 µM)	IC50 (second compound 1 µM)	IC50 (second compound 3.16 µM)	IC50 (second compound 10 µM)	viability, T/C [1]	viability, T/C [2]	viability, T/C [3]	viability, T/C [4]	viability, T/C [7]	viability, T/C [8]	viability, T/C [9]	viability, T/C [10]	viability, T/C [13]	viability, T/C [14]	viability, T/C [15]	viability, T/C [16]	viability, T/C [19]	viability, T/C [20]	viability, T/C [21]	further results
CC(C)NCC(C(=O)N1CCN(c2ncnc3c2C(C)CC3O)CC1)c1ccc(Cl)cc1 (stereo not given) + CC1OCC2(CCN(c3cnc(Sc4ccnc(N)c4Cl)c(N)n3)CC2)C1N	< 31.6 nM	< 31.6 nM	< 31.6 nM	< 31.6 nM	< 31.6 nM	48.9%	38.3%	29.8%	31.9%	37.1%	30.9%	21.5%	20.5%	26.4%	22.4%	14.3%	11.9%	21.2%	17.3%	10.9%	viability, T/C [5]: 33.6%; viability, T/C [6]: 36.5%; viability, T/C [11]: 18.6%; viability, T/C [12]: 16.6%; viability, T/C [17]: 10%; viability, T/C [18]: 6.25%; viability, T/C [22]: 5.23%; viability, T/C [23]: 4.49%; viability, T/C [24]: 3.72%; viability, T/C [25]: 6.83%; viability, T/C [26]: 7.98%; viability, T/C [27]: 5.46%; viability, T/C [28]: 3.11%; viability, T/C [29]: 2.15%; viability, T/C [30]: 1.82%
CC1COCCN1c1cc(-c2ccnn2C)c2ccnc(-c3ccn[nH]3)c2n1 (stereo not given) + CC1OCC2(CCN(c3cnc(Sc4ccnc(N)c4Cl)c(N)n3)CC2)C1N	< 10 nM	< 10 nM	< 10 nM	< 10 nM	< 10 nM	41.8%	32%	36.3%	41.7%	31.8%	24.9%	18.5%	21.6%	23.4%	19%	15.3%	10.2%	16.3%	10.9%	7.95%	viability, T/C [31]: 59.9%; viability, T/C [5]: 48.2%; viability, T/C [32]: 39%; viability, T/C [11]: 27.5%; viability, T/C [33]: 28.2%; viability, T/C [17]: 9.22%; viability, T/C [34]: 23%; viability, T/C [22]: 8.32%; viability, T/C [23]: 3.11%; viability, T/C [35]: 14.4%; viability, T/C [25]: 12%; viability, T/C [26]: 7.07%; viability, T/C [27]: 3.98%; viability, T/C [28]: 2.99%; viability, T/C [29]: 1.57%
CCN1CCN(Cc2ccc(Nc3ncc(F)c(-c4cc(F)c5nc(C)n(C(C)C)c5c4)n3)nc2)CC1 + CC1OCC2(CCN(c3cnc(Sc4ccnc(N)c4Cl)c(N)n3)CC2)C1N	6.46 nM	< 3.16 nM	< 3.16 nM	< 3.16 nM	< 3.16 nM	41.1%	41.2%	39.9%	39.1%	27.7%	25.5%	23%	24.2%	20.7%	17.7%	16.5%	20.5%	16.1%	10.6%	10.9%	viability, T/C (second compound 0.1 µM, first compound 0.00316 µM): 54.8%; viability, T/C [31]: 48.2%; viability, T/C (second compound 0.316 µM, first compound 0.00316 µM): 35.5%; viability, T/C [32]: 30.2%; viability, T/C (second compound 1 µM, first compound 0.00316 µM): 26%; viability, T/C [33]: 23.1%; viability, T/C (second compound 3.16 µM, first compound 0.00316 µM): 15.2%; viability, T/C [34]: 16.7%; viability, T/C [22]: 14.9%; viability, T/C (second compound 10 µM, first compound 0.00316 µM): 10.4%; viability, T/C [35]: 7.73%; viability, T/C [25]: 6.15%; viability, T/C [26]: 6.13%; viability, T/C [27]: 7.13%; viability, T/C [28]: 15.3%
CCNC(=O)CC1N=C(c2ccc(Cl)cc2)c2cc(OC)ccc2-n2c(C)nnc21 (stereo not given) + CC1OCC2(CCN(c3cnc(Sc4ccnc(N)c4Cl)c(N)n3)CC2)C1N	278 nM	39.9 nM	< 31.6 nM	< 31.6 nM	< 31.6 nM	69.1%	71.4%	46.2%	30.9%	48.4%	50.9%	32%	20.2%	34.5%	28.7%	21.5%	11.2%	22.7%	18.6%	12.2%	viability, T/C [5]: 23.5%; viability, T/C [6]: 23.8%; viability, T/C [11]: 14.3%; viability, T/C [12]: 14.1%; viability, T/C [17]: 8.48%; viability, T/C [18]: 8.48%; viability, T/C [22]: 7.87%; viability, T/C [23]: 4.55%; viability, T/C [24]: 4.52%; viability, T/C [25]: 10.9%; viability, T/C [26]: 11.7%; viability, T/C [27]: 7.18%; viability, T/C [28]: 2.24%; viability, T/C [29]: 1.59%; viability, T/C [30]: 0.97%
Cn1nccc1Nc1nccc(-c2cc3c(s2)C(C)(C)N(CCN2CCOCC2)C3=O)n1 + CC1OCC2(CCN(c3cnc(Sc4ccnc(N)c4Cl)c(N)n3)CC2)C1N	180 nM	< 31.6 nM	< 31.6 nM	< 31.6 nM	< 31.6 nM	60.6%	52%	46.3%	38.9%	36.8%	35.9%	29.7%	24.3%	32.6%	29.5%	21%	18.3%	18.6%	19.6%	17.9%	viability, T/C [5]: 24.1%; viability, T/C [6]: 23.4%; viability, T/C [11]: 21.5%; viability, T/C [12]: 18.2%; viability, T/C [17]: 16.4%; viability, T/C [18]: 12.4%; viability, T/C [22]: 9.57%; viability, T/C [23]: 7.17%; viability, T/C [24]: 10.8%; viability, T/C [25]: 10.2%; viability, T/C [26]: 10.7%; viability, T/C [27]: 10.5%; viability, T/C [28]: 4.14%; viability, T/C [29]: 3.55%; viability, T/C [30]: 5.13%
CC(=O)OC12COC1CC(O)C1(C)C(=O)C(O)C3=C(C)C(OC(=O)C(O)C(NC(=O)OC(C)(C)C)c4ccccc4)CC(O)(C(OC(=O)c4ccccc4)C21)C3(C)C (stereo not given) + CNCc1ccccc1-c1csc(C(C)Nc2nc(C)nc3cc(OC)c(OC)cc23)c1	< 10 nM	< 10 nM	< 10 nM	< 10 nM	< 10 nM	46.4%	43.9%	47.1%	61.4%	34.3%	34.4%	42.4%	39.5%	40.9%	42.2%	48.3%	48.1%	0.94%	0.36%	0.26%	viability, T/C [31]: 48.5%; viability, T/C [5]: 53.6%; viability, T/C [32]: 35.6%; viability, T/C [11]: 40%; viability, T/C [33]: 44%; viability, T/C [17]: 42.1%; viability, T/C [34]: 24%; viability, T/C [22]: 0.19%; viability, T/C [23]: 37.5%; viability, T/C [35]: 0.6%; viability, T/C [25]: 0.13%; viability, T/C [26]: 0.43%; viability, T/C [27]: 0.19%; viability, T/C [28]: 42.7%; viability, T/C [29]: 0.85%
